Our source for the inhibition and CC50 values is ChEMBL document CHEMBL4482308, “Ghrelin o-acyltransferase inhibitors” (2017).

SMILES strings stand for the structures. Calls of active or inactive are those of the source. The rule behind the calls is not given here. Bounds are passed on as bounds.

Data set [1] addresses T1, Membrane-bound ghrelin O-acyltransferase MBOAT4 (Mus musculus) (UniProt P0C7A3).
T1 sequence (whole entry): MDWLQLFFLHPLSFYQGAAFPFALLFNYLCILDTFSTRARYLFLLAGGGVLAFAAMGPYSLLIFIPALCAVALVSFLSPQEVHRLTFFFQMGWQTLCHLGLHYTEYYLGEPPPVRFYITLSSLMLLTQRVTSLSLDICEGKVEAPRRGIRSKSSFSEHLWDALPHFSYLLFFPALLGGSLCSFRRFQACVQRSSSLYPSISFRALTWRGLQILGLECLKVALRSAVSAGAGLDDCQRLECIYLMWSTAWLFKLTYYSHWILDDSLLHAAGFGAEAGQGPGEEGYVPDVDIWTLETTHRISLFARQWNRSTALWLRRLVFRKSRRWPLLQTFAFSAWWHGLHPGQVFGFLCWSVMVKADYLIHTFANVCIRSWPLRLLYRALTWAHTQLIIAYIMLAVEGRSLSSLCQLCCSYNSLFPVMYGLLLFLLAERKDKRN
Kind of data set: Inhibition of mouse GOAT expressed in HEK293FT cells co-expressing pre-proghrelin assessed as reduction in ghrelin octanoylation up to 1 uM incubated for 24 hrs by ELISA. It counts as cell-based.

Data set [2] can be described thus: Cytotoxicity in HEK293FT cells co-expressing mouse GOAT and pre-proghrelin assessed as reduction in cell viability incubated for 24 hrs by alamar blue assay. It counts as cell-based. Conditions: human, read-out: LD50. (Alamar Blue is a resazurin reagent that responds to reducing activity.)

Consider `CC1(C)CC[C@]2(C(=O)O)CC[C@]3(C)[C@H](C(=O)C=C4[C@@]5(C)C=C(C#N)C(=O)C(C)(C)[C@@H]5CC[C@]43C)[C@@H]2C1`, for which the inhibition entry in data set [1] was “inactive”.

Regarding `CCNC(=O)[C@]12CCC(C)(C)C[C@H]1[C@H]1C(=O)C=C3[C@@]4(C)C=C(C#N)C(=O)C(C)(C)[C@@H]4CC[C@@]3(C)[C@]1(C)CC2`, the CC50 at 24 h in data set [2] is ≥ 10 µM.

For the molecule `COC(=O)[C@]12CCC(C)(C)C[C@H]1[C@H]1C(=O)C=C3[C@@]4(C)C=C(C#N)C(=O)C(C)(C)[C@@H]4CC[C@@]3(C)[C@]1(C)CC2` [BARDOXOLONE METHYL], the CC50 at 24 h in data set [2] was ≥ 10 µM.
